From patent US8592468B2, “Bacterial thioredoxin reductase inhibitors and methods for use thereof” (Thioredoxin Systems AB, priority 2006, dated 2013)
Where two headings read alike, the source gives them in different places.

Experiments:
E. coli TrxR = E. coli TrxR (Escherichia coli (strain K12), UniProt P0A9P4); test: Inhibition of E. coli TrxR reduction of Trx, DTNB coupled assay (Lineweaver-Burk); assay type: biochemical
Protocol: FIGS. 4A and 4B show the effect of ebselen (FIG. 4A) and ebselen diselenide (FIG. 4B) on DTNB reduction by E. coli thioredoxin and thioredoxin reductase. Assays were contained in 0.50 ml semi-microcuvettes containing 0.24 mM NADPH, 1 mM DTNB in 0.10 M Tris-Cl, pH 8.0, 1 mM EDTA. The increase in A412 was measured against a blank using 10 nM E. coli TrxR in the presence of 2 μM (grey filled points), 5 μM (white filled points), 10 μM (black filled points) E. coli Trx with 0 (squares), 0.5 μM (triangles), 1 μM (rhombus), 2 μM (rounds) of ebselen or ebselen diselenide.
(A) Ebselen concentrations were 0 μM (▴), 0.5 μM (∀), 1 μM (▪) and 2 μM (Δ). […] (B) Ebselen concentrations were 0 μM (▴), 1 μM (▪) and 2 μM (∀).
The activity of the enzyme was determined at room temperature using an Ultrospec 3000 UV/Visual spectrophotometer (Amersham Biosciences). […] The enzyme-catalysed reactions were followed at 340 nm using the standard calculation of NADPH oxidation to NADP^+ with a molar extinction coefficient of 6200 M^−1 cm^−1 (32, 34). The conditions of the assay of bacterial thioredoxin reductase have been described (32, 34) using either 1 mM DTNB or 160 μM insulin as a substrate. In DTNB coupled assays, 240 μM NADPH and 1 mM DTNB were used in the TE buffer and formation of the TNB was measured at 412 nm, where TNB has an extinction coefficient of 13600 M^−1 cm^−1.
Further we examined the effect of ebselen in the reduction of disulphide by E. coli Trx and TrxR using both DTNB and insulin as substrates. […] FIGS. 4A and 4B show the effect of ebselen (4A) and ebselen diselenide (4B) on DTNB reduction by E. coli thioredoxin and thioredoxin reductase. Assays in semi-microcuvettes with 0.5 ml solution contained 0.24 mM NADPH, 1 mM DTNB in 50 mM Tris-Cl/1 mM EDTA, pH 7.5 buffer. (A) In the presence of 2 μM (grey filled points), 5 μM (white filled points) and 10 μM (black filled points) of E. coli Trx and 7.6 nM of E. coli TrxR with ebselen at concentrations of zero (squares), 0.5 μM (triangles), 1 μM (rhombus), and 2 μM (rounds), the increase in A412 was measured against a blank. (B) In the presence of 2 μM (grey filled points), 5 μM (white filled points) and 10 μM (black filled points) of E. coli Trx and 10 nM of E. coli TrxR, with ebselen diselenide at concentrations of zero (squares), 1 μM (triangles) and 2 μM (rounds), the increase in A412 was measured against a blank.

Staphylococcus aureus = conditions: cited from earlier work
E. coli Trx-(SH)2 = E. coli Trx-(SH)2 (Escherichia coli (strain K12), UniProt P0AA25); conditions: fluorescence spectroscopy; cited from earlier work
[1] = system: Mycobacterium tuberculosis; test: Inhibition of Mycobacterium tuberculosis by ebselen, radiometric BACTEC 460 system; assay type: cell-based

Chain of E. coli TrxR (P0A9P4 2-321 limits assumed): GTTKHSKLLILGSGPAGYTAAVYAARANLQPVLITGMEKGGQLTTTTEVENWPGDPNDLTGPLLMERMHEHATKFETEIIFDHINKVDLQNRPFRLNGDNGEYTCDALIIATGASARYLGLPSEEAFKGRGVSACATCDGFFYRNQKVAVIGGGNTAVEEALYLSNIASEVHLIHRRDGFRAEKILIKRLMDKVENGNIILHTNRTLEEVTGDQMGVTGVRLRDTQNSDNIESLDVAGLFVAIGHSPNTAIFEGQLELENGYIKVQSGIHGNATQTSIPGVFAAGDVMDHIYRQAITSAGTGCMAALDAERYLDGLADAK

O=c1c2ccccc2[se]n1-c1ccccc1 [EbSe 6, 2-phenyl-1,2-benzisoselenazol-3(2H)-one]
inhibition of E. coli TrxR (in words) (E. coli TrxR): strongly inhibited | Ki (E. coli TrxR; Ki (competitive inhibitor of Trx reduction by E. coli TrxR), from Lineweaver-Burk slopes): 150 nM | mode of antibacterial action (Staphylococcus aureus; S. aureus strains): bacteriocidal | concentration inhibiting growth (Staphylococcus aureus; Staphylococcus aureus 209P): 0.20 µg/mL | MIC for 90% of S. aureus strains (Staphylococcus aureus): 1.56 μg per ml | sensitivity of S. aureus relative to E. coli (Staphylococcus aureus): 100 fold | concentration inhibiting growth (Staphylococcus aureus; methicillin resistant Staphylococcus aureus): 0.20 μg per ml | second-order rate constant of reaction with reduced E. coli Trx (E. coli Trx-(SH)2): 2e+07 M⁻¹ s⁻¹ | MIC ([1]; Mycobacterium tuberculosis): < 20 µg/mL | Sensitivity to ebselen ([1]; strain BTB 98-310 (MDR), ebselen 10 μg/ml): R | Sensitivity to ebselen ([1]; strain BTB 98-310 (MDR), ebselen 20 μg/ml): S | Sensitivity to ebselen ([1]; strain BTB 98-310 (MDR), ebselen 40 μg/ml): S | Sensitivity to ebselen ([1]; strain BTB 98-310 (MDR), ebselen 80 μg/ml): S | Sensitivity to ebselen ([1]; strain H37Rv, ebselen 10 μg/ml): R | Sensitivity to ebselen ([1]; strain H37Rv, ebselen 20 μg/ml): S | Sensitivity to ebselen ([1]; strain H37Rv, ebselen 40 μg/ml): S | Sensitivity to ebselen ([1]; strain H37Rv, ebselen 80 μg/ml): S | Sensitivity to ebselen ([1]; strain Panel3:24 (MDR), ebselen 10 μg/ml): R | Sensitivity to ebselen ([1]; strain Panel3:24 (MDR), ebselen 20 μg/ml): S | Sensitivity to ebselen ([1]; strain Panel3:24 (MDR), ebselen 40 μg/ml): S | Sensitivity to ebselen ([1]; strain Panel3:24 (MDR), ebselen 80 μg/ml): S
